# Target: T1, human recombinant glucocorticoid receptor (Homo sapiens, UniProt P04150)
# T1 construct: This GR was a full-length steroid hormone receptor; host or cells: recombinant baculovirus-infected insect cells
# T1 sequence (P04150 1-777): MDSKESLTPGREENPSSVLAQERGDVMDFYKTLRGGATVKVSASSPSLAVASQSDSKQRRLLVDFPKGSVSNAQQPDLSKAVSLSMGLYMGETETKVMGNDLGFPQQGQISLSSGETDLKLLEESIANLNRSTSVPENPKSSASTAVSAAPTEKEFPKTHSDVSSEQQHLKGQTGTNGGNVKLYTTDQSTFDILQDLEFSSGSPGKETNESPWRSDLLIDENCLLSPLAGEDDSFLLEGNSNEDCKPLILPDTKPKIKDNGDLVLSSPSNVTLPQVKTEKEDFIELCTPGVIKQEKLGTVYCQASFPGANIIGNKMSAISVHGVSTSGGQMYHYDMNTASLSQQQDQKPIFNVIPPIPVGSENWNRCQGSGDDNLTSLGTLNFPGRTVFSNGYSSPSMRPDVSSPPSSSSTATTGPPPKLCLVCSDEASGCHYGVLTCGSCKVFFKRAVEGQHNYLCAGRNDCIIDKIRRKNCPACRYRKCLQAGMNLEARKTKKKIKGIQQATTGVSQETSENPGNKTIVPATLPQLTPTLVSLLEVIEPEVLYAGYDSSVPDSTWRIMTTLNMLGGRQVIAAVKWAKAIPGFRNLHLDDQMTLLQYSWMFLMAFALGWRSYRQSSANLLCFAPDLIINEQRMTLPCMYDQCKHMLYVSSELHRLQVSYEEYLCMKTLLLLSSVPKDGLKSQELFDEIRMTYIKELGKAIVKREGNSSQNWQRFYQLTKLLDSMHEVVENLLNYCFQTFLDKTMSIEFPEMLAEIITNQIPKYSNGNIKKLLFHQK
# Assay: Glucocorticoid receptor binding displacement assay with 3H-dexamethasone
# Conditions: Ki
# Method: The source of the receptor was recombinant baculovirus-infected insect cells. This GR was a full-length steroid hormone receptor likely to be associated with heat-shock and other endogenous proteins.
# For the Primary Screen, test compounds were tested at 1 μM in duplicate. These compounds were diluted from 10 mM stock in 100% DMSO. After dilution to 100 μM, 5 μl were added to 245 μl assay buffer to obtained 2 μM compound and 2% DMSO.
# For the IC50 determinations, test compounds were tested at 6 concentrations in duplicate (concentration range depends on % inhibition binding that was obtained in the Primary Screen,). Test compounds were diluted from 10 mM stock in 100% DMSO. The tested solutions were prepared at 2×final assay concentration in 2% DMSO/assay buffer.
# All reagents and the assay plate were kept on ice during the addition of reagents. […] After the additions, the incubation mixture was mixed and incubated for 2.5 hrs at 4° C.
# After 2.5 hrs incubation, unbound counts were removed with dextran coated charcoal (DCC) as follows: 25 μl of DCC solution (10% DCC in assay buffer) was added to all wells and mixed (total volume 225 μl). The plate was centrifuged at 4000 rpm for 10 minutes at 4° C. 75 μl of the supernatants (i.e. ⅓ of total volume) was carefully pipetted into an optiplate. 200 μl of scintillation cocktail were added (Microscint-40, Packard Bioscience. B.V.). The plate was vigorously shaken for approx. 10 minutes and counted on Topcount.
# The IC50 values were converted to Ki (the inhibition constant) using the Cheng-Prusoff equation.
# Reagents: Assay buffer: 10 mM potassium phosphate buffer pH 7.6 containing 5 mM DTT, 10 mM sodium molybdate, 100 μM EDTA and 0.1% BSA.
row,SMILES,Ki
1,Cn1c(=O)[nH]c(N2CCC(Oc3ccccc3)CC2)c(Cc2ccccc2)c1=O [Compound 37],10 to 100 nM

# Same assay, conditions: displacement of 2.5 nM 3H-dexamethasone; IC50 converted to Ki by Cheng-Prusoff; read-out: Ki
row,SMILES,Ki
1,Cn1c(=O)[nH]c(N2CCC(O)CC2)c(Cc2cccc(C(F)(F)F)c2)c1=O [Compound 1],> 100 nM
2,CCOC(=O)N1CCN(c2[nH]c(=O)n(C)c(=O)c2Cc2cccc(C(F)(F)F)c2)CC1 [Compound 2],> 100 nM
3,Cn1c(=O)[nH]c(N2CCC(Cc3ccccc3)CC2)c(Cc2ccccc2Br)c1=O [Compound 3],> 100 nM
4,Cn1c(=O)[nH]c(N2CCC(Cc3ccccc3)CC2)c(Cc2ccccc2Br)c1=O [Compound 4],10 to 100 nM
5,Cn1c(=O)[nH]c(N2CCC(Cc3ccccc3)CC2)c(Cc2ccccc2)c1=O [Compound 5],10 to 100 nM
6,Cn1c(=O)[nH]c(N2CCC(Cc3ccccc3)CC2)c(Cc2ccc(F)cc2F)c1=O [Compound 6],10 to 100 nM
7,Cn1c(=O)[nH]c(N2CCC(Cc3ccccc3)CC2)c(Cc2ccc(Br)cc2)c1=O [Compound 7],10 to 100 nM
8,Cn1c(=O)[nH]c(N2CCC(Cc3ccccc3)CC2)c(Cc2ccc(F)cc2Cl)c1=O [Compound 8],> 100 nM
9,Cn1c(=O)[nH]c(N2CCC(Cc3ccccc3)CC2)c(Cc2ccc(C#N)cc2)c1=O [Compound 9],> 100 nM
10,Cc1ccc(Cc2c(N3CCC(Cc4ccccc4)CC3)[nH]c(=O)n(C)c2=O)cc1 [Compound 10],10 to 100 nM
11,CC(C)=CCc1c(N2CCC(Cc3ccccc3)CC2)[nH]c(=O)n(C)c1=O [Compound 11],> 100 nM
12,Cn1c(=O)[nH]c(N2CCC(Cc3ccccc3)CC2)c(Cc2ccc(C(C)(C)C)cc2)c1=O [Compound 13],> 100 nM
13,Cn1c(=O)[nH]c(N2CCC(Cc3ccccc3)CC2)c(Cc2ccccc2-c2ccccc2)c1=O [Compound 14],> 100 nM
14,Cn1c(=O)[nH]c(N2CCN(Cc3ccccc3)CC2)c(Cc2ccccc2)c1=O [Compound 16],> 100 nM
15,Cn1c(=O)[nH]c(N2CCC(c3ccccc3)CC2)c(Cc2ccccc2)c1=O [Compound 17],10 to 100 nM
16,O=c1[nH]c(N2CCC(Cc3ccccc3)CC2)c(Cc2ccccc2)c(=O)[nH]1 [Compound 18],10 to 100 nM
17,Cn1c(=O)[nH]c(N2CCC(O)(Cc3ccccc3)CC2)c(Cc2ccccc2)c1=O [Compound 19],> 100 nM
18,Cn1c(=O)[nH]c(N2CCN(C(c3ccccc3)c3ccccc3)CC2)c(Cc2ccccc2)c1=O [Compound 21],> 100 nM
19,O=c1[nH]c(N2CCN(Cc3ccccc3)CC2)c(Cc2ccccc2)c(=O)[nH]1 [Compound 22],> 100 nM

row,SMILES,Ki
1,O=c1[nH]c(N2CCC(Cc3ccccc3)CC2)c(Cc2cccc(Cl)c2)c(=O)n1Cc1ccccc1 [Compound 24],10 to 100 nM
2,O=c1[nH]c(N2CCC(Cc3ccccc3)CC2)c(Cc2cccc(Cl)c2)c(=O)n1-c1ccccc1 [Compound 25],> 100 nM
3,CC(C)Cn1c(=O)[nH]c(N2CCC(Cc3ccccc3)CC2)c(Cc2cccc(Cl)c2)c1=O [Compound 26],> 100 nM
4,O=c1[nH]c(N2CCC(c3ccccc3)CC2)c(Cc2cccc(Cl)c2)c(=O)n1Cc1ccccc1 [Compound 27],> 100 nM
5,Cn1c(=O)[nH]c(N2CCC(c3ccccc3)CC2)c(CCc2ccccc2)c1=O [Compound 28],> 100 nM
6,CCn1c(=O)[nH]c(N2CCC(Cc3ccccc3)CC2)c(Cc2cccc(Cl)c2)c1=O [Compound 29],> 100 nM
7,CCn1c(=O)[nH]c(N2CCC(c3ccccc3)CC2)c(Cc2cccc(Cl)c2)c1=O [Compound 30],> 100 nM
8,O=c1[nH]c(N2CCC(c3ccccc3)CC2)c(Cc2ccccc2)c(=O)[nH]1 [Compound 31],< 10 nM
9,O=c1[nH]c(N2CCC(c3ccccc3)CC2)c(Cc2ccccc2Cl)c(=O)[nH]1 [Compound 33],< 10 nM
10,Cn1c(=O)[nH]c(N2CCC(c3ccccc3)CC2)c(Cc2ccccc2Cl)c1=O [Compound 34],10 to 100 nM
11,O=c1[nH]c(N2CCC(c3ccccc3)CC2)c(Cc2cccc(Cl)c2)c(=O)[nH]1 [Compound 35],< 10 nM
12,O=c1[nH]c(N2CCC(c3ccccc3)CC2)c(Cc2ccc(Cl)cc2)c(=O)[nH]1 [Compound 36],10 to 100 nM
13,O=c1[nH]c(N2CCC(c3ccccc3)CC2)c(Cc2cccc(Br)c2)c(=O)[nH]1 [Compound 38],10 to 100 nM
14,COc1cccc(C2CCN(c3[nH]c(=O)[nH]c(=O)c3Cc3ccccc3)CC2)c1 [Compound 39],< 10 nM
15,COc1ccc(C2CCN(c3[nH]c(=O)[nH]c(=O)c3Cc3ccccc3)CC2)cc1 [Compound 40],10 to 100 nM
16,COc1ccccc1C1CCN(c2[nH]c(=O)[nH]c(=O)c2Cc2ccccc2)CC1 [Compound 41],< 10 nM
17,O=c1[nH]c(N2CCC(c3c[nH]c4ccccc34)CC2)c(Cc2ccccc2)c(=O)[nH]1 [Compound 42],10 to 100 nM
18,CC(=O)Nc1ccc(C2CCN(c3[nH]c(=O)[nH]c(=O)c3Cc3ccccc3)CC2)cc1 [Compound 46],10 to 100 nM
19,N#Cc1cccc(Cc2c(N3CCC(c4ccccc4)CC3)[nH]c(=O)[nH]c2=O)c1 [Compound 48],10 to 100 nM

# Target: T2, endogenous glucocorticoid receptors in SW1353/MMTV-5 cells (Homo sapiens, UniProt P04150)
# T2 construct: contains endogenous glucocorticoid receptors; endogenous in cells; host or cells: SW1353/MMTV-5 (human chondrosarcoma, stably transfected with the pMAMneo-Luc reporter only)
# T2 sequence (P04150 1-777): T1 sequence (P04150 1-777)
# Assay: GR functional assay using SW1353/MMTV-5 cells (luciferase reporter)
# Format: cell-based
# Conditions: not given
# Method: SW1353/MMTV-5 is an adherent human chondrosarcoma cell line that contains endogenous glucocorticoid receptors. It was transfected with a plasmid (pMAMneo-Luc) encoding firefly luciferase located behind a glucocorticoid-responsive element (GRE) derived from a viral promoter (long terminal repeat of mouse mammary tumor virus). A stable cell line SW1353/MMTV-5 was selected with geneticin, which was required to maintain this plasmid.
# SW1353/MMTV-5 cells were distributed in 96-well plates and incubated in medium (without geneticin) for 24 hrs (in the absence of CO2).
row,SMILES,Ki
1,O=c1[nH]c(N2CCC(c3ccccc3)CC2)c(Cc2ccccc2)c(=O)[nH]1 [Compound 31],10 to 100 nM
2,O=c1[nH]c(N2CCC(c3ccccc3)CC2)c(Cc2ccccc2Cl)c(=O)[nH]1 [Compound 33],10 to 100 nM
3,Cn1c(=O)[nH]c(N2CCC(c3ccccc3)CC2)c(Cc2ccccc2Cl)c1=O [Compound 34],> 100 nM
4,O=c1[nH]c(N2CCC(c3ccccc3)CC2)c(Cc2cccc(Cl)c2)c(=O)[nH]1 [Compound 35],10 to 100 nM
5,O=c1[nH]c(N2CCC(c3ccccc3)CC2)c(Cc2ccc(Cl)cc2)c(=O)[nH]1 [Compound 36],> 100 nM
6,O=c1[nH]c(N2CCC(c3ccccc3)CC2)c(Cc2cccc(Br)c2)c(=O)[nH]1 [Compound 38],10 to 100 nM
